Patent US20240415914A1, “Water Dispersible Cannabinoid Compositions” (priority 2021, published 2024)
Where two headings read alike, the source gives them in different places.

Tests used:
[1] = Stability of cannabinoid and Vitamin E components of Beverage 2 (AB Red) stored at 8° C. and 21-25° C., LCMSMS over 570 days
Description: The LCMSMS was calibrated for 0-50 ng/ml cannabinoids with the same resin material used in the preparation of the concentrates. At each time period, 100 μml of beverage was diluted with 10 ml of methanol and injected into the LCMSMS for analysis.

[2] = type: physicochemical; details: stored at room temperature (21-25° C.)
Description: At each time period, 0.05 g of powder was dissolved in 10 ml-15 of ethanol, diluted to fall within the analytical range, and injected into the LCMSMS for analysis.

CCCc1cc(O)c2c(c1)OC(C)(C)[C@@H]1CCC(C)=C[C@@H]21 [THCV, delta-9-tetrahydrocannabivarin]
Stability of Cannabinoids in AB Red ([1]; 8° C., 0 days): 3.22 µg/mL | Stability of Cannabinoids in AB Red ([1]; 8° C., 1 days): 3.19 µg/mL | Stability of Cannabinoids in AB Red ([1]; 8° C., 2 days): 3.17 µg/mL | Stability of Cannabinoids in AB Red ([1]; 8° C., 3 days): 3.20 µg/mL | Stability of Cannabinoids in AB Red ([1]; 8° C., 5 days): 3.24 µg/mL | Stability of Cannabinoids in AB Red ([1]; 8° C., 8 days): 3.17 µg/mL | Stability of Cannabinoids in AB Red ([1]; 8° C., 9 days): 3.14 µg/mL | Stability of Cannabinoids in AB Red ([1]; 8° C., 10 days): 3.14 µg/mL | Stability of Cannabinoids in AB Red ([1]; 8° C., 11 days): 3.24 µg/mL | Stability of Cannabinoids in AB Red ([1]; 8° C., 12 days): 3.25 µg/mL | Stability of Cannabinoids in AB Red ([1]; 8° C., 15 days): 3.19 µg/mL | Stability of Cannabinoids in AB Red ([1]; 8° C., 16 days): 3.25 µg/mL | Stability of Cannabinoids in AB Red ([1]; 8° C., 17 days): 3.12 µg/mL | Stability of Cannabinoids in AB Red ([1]; 8° C., 18 days): 3.17 µg/mL | Stability of Cannabinoids in AB Red ([1]; 8° C., 19 days): 3.19 µg/mL | Stability of Cannabinoids in AB Red ([1]; 8° C., 22 days): 3.22 µg/mL | Stability of Cannabinoids in AB Red ([1]; 8° C., 23 days): 3.25 µg/mL | Stability of Cannabinoids in AB Red ([1]; 8° C., 24 days): 3.15 µg/mL | Stability of Cannabinoids in AB Red ([1]; 8° C., 25 days): 3.25 µg/mL | Stability of Cannabinoids in AB Red ([1]; 8° C., 26 days): 3.13 µg/mL | Stability of Cannabinoids in AB Red ([1]; 8° C., 29 days): 3.22 µg/mL | Stability of Cannabinoids in AB Red ([1]; 8° C., 30 days): 3.20 µg/mL | Stability of Cannabinoids in AB Red ([1]; 8° C., 60 days): 3.11 µg/mL | Stability of Cannabinoids in AB Red ([1]; 8° C., 90 days): 3.10 µg/mL | Stability of Cannabinoids in AB Red ([1]; 8° C., 120 days): 3.10 µg/mL | Stability of Cannabinoids in AB Red ([1]; 8° C., 150 days): 3.15 µg/mL | Stability of Cannabinoids in AB Red ([1]; 8° C., 180 days): 3.10 µg/mL | Stability of Cannabinoids in AB Red ([1]; 8° C., 210 days): 3.15 µg/mL | Stability of Cannabinoids in AB Red ([1]; 8° C., 240 days): 3.08 µg/mL | Stability of Cannabinoids in AB Red ([1]; 8° C., 270 days): 3.15 µg/mL | Stability of Cannabinoids in AB Red ([1]; 8° C., 300 days): 3.15 µg/mL | Stability of Cannabinoids in AB Red ([1]; 8° C., 330 days): 3.15 µg/mL | Stability of Cannabinoids in AB Red ([1]; 8° C., 390 days): 3.08 µg/mL | Stability of Cannabinoids in AB Red ([1]; 8° C., 420 days): 3.13 µg/mL | Stability of Cannabinoids in AB Red ([1]; 8° C., 450 days): 3.08 µg/mL | Stability of Cannabinoids in AB Red ([1]; 8° C., 480 days): 3.05 µg/mL | Stability of Cannabinoids in AB Red ([1]; 8° C., 510 days): 2.95 µg/mL | Stability of Cannabinoids in AB Red ([1]; 8° C., 540 days): 2.99 µg/mL | Stability of Cannabinoids in AB Red ([1]; 8° C., 570 days): 2.95 µg/mL | Stability of Cannabinoids in AB Red ([1]; 21-25° C., 0 days): 3.22 µg/mL | Stability of Cannabinoids in AB Red ([1]; 21-25° C., 1 days): 3.13 µg/mL | Stability of Cannabinoids in AB Red ([1]; 21-25° C., 2 days): 3.20 µg/mL | Stability of Cannabinoids in AB Red ([1]; 21-25° C., 3 days): 3.25 µg/mL | Stability of Cannabinoids in AB Red ([1]; 21-25° C., 5 days): 3.25 µg/mL | Stability of Cannabinoids in AB Red ([1]; 21-25° C., 8 days): 3.19 µg/mL | Stability of Cannabinoids in AB Red ([1]; 21-25° C., 9 days): 3.17 µg/mL | Stability of Cannabinoids in AB Red ([1]; 21-25° C., 10 days): 3.09 µg/mL | Stability of Cannabinoids in AB Red ([1]; 21-25° C., 11 days): 3.24 µg/mL | Stability of Cannabinoids in AB Red ([1]; 21-25° C., 12 days): 3.24 µg/mL | Stability of Cannabinoids in AB Red ([1]; 21-25° C., 15 days): 3.20 µg/mL | Stability of Cannabinoids in AB Red ([1]; 21-25° C., 16 days): 3.20 µg/mL | Stability of Cannabinoids in AB Red ([1]; 21-25° C., 17 days): 3.11 µg/mL | Stability of Cannabinoids in AB Red ([1]; 21-25° C., 18 days): 3.19 µg/mL | Stability of Cannabinoids in AB Red ([1]; 21-25° C., 19 days): 3.19 µg/mL | Stability of Cannabinoids in AB Red ([1]; 21-25° C., 22 days): 3.18 µg/mL | Stability of Cannabinoids in AB Red ([1]; 21-25° C., 23 days): 3.23 µg/mL | Stability of Cannabinoids in AB Red ([1]; 21-25° C., 24 days): 3.25 µg/mL | Stability of Cannabinoids in AB Red ([1]; 21-25° C., 25 days): 3.24 µg/mL | Stability of Cannabinoids in AB Red ([1]; 21-25° C., 26 days): 3.11 µg/mL | Stability of Cannabinoids in AB Red ([1]; 21-25° C., 29 days): 3.15 µg/mL | Stability of Cannabinoids in AB Red ([1]; 21-25° C., 30 days): 3.15 µg/mL | Stability of Cannabinoids in AB Red ([1]; 21-25° C., 60 days): 3.18 µg/mL | Stability of Cannabinoids in AB Red ([1]; 21-25° C., 90 days): 3.05 µg/mL | Stability of Cannabinoids in AB Red ([1]; 21-25° C., 120 days): 3.09 µg/mL | Stability of Cannabinoids in AB Red ([1]; 21-25° C., 150 days): 3.17 µg/mL | Stability of Cannabinoids in AB Red ([1]; 21-25° C., 180 days): 3.10 µg/mL | Stability of Cannabinoids in AB Red ([1]; 21-25° C., 210 days): 3.03 µg/mL | Stability of Cannabinoids in AB Red ([1]; 21-25° C., 240 days): 3.18 µg/mL | Stability of Cannabinoids in AB Red ([1]; 21-25° C., 270 days): 3.04 µg/mL | Stability of Cannabinoids in AB Red ([1]; 21-25° C., 300 days): 3.14 µg/mL | Stability of Cannabinoids in AB Red ([1]; 21-25° C., 330 days): 3.19 µg/mL | Stability of Cannabinoids in AB Red ([1]; 21-25° C., 390 days): 3.04 µg/mL | Stability of Cannabinoids in AB Red ([1]; 21-25° C., 420 days): 3.10 µg/mL | Stability of Cannabinoids in AB Red ([1]; 21-25° C., 450 days): 3.14 µg/mL | Stability of Cannabinoids in AB Red ([1]; 21-25° C., 480 days): 3.04 µg/mL | Stability of Cannabinoids in AB Red ([1]; 21-25° C., 510 days): 3.01 µg/mL | Stability of Cannabinoids in AB Red ([1]; 21-25° C., 540 days): 2.95 µg/mL | Stability of Cannabinoids in AB Red ([1]; 21-25° C., 570 days): 2.98 µg/mL | Stability in Powder Concentrate (content by LCMSMS) ([2]; day 0): 0.680 mg/g powder | Stability in Powder Concentrate (content by LCMSMS) ([2]; day 1): 0.685 mg/g powder | Stability in Powder Concentrate (content by LCMSMS) ([2]; day 2): 0.699 mg/g powder | Stability in Powder Concentrate (content by LCMSMS) ([2]; day 3): 0.698 mg/g powder | Stability in Powder Concentrate (content by LCMSMS) ([2]; day 5): 0.676 mg/g powder | Stability in Powder Concentrate (content by LCMSMS) ([2]; day 8): 0.685 mg/g powder | Stability in Powder Concentrate (content by LCMSMS) ([2]; day 9): 0.693 mg/g powder | Stability in Powder Concentrate (content by LCMSMS) ([2]; day 10): 0.706 mg/g powder | Stability in Powder Concentrate (content by LCMSMS) ([2]; day 11): 0.708 mg/g powder | Stability in Powder Concentrate (content by LCMSMS) ([2]; day 12): 0.698 mg/g powder | Stability in Powder Concentrate (content by LCMSMS) ([2]; day 15): 0.684 mg/g powder | Stability in Powder Concentrate (content by LCMSMS) ([2]; day 16): 0.658 mg/g powder | Stability in Powder Concentrate (content by LCMSMS) ([2]; day 17): 0.681 mg/g powder | Stability in Powder Concentrate (content by LCMSMS) ([2]; day 18): 0.690 mg/g powder | Stability in Powder Concentrate (content by LCMSMS) ([2]; day 19): 0.705 mg/g powder | Stability in Powder Concentrate (content by LCMSMS) ([2]; day 22): 0.703 mg/g powder | Stability in Powder Concentrate (content by LCMSMS) ([2]; day 23): 0.687 mg/g powder | Stability in Powder Concentrate (content by LCMSMS) ([2]; day 24): 0.668 mg/g powder | Stability in Powder Concentrate (content by LCMSMS) ([2]; day 25): 0.689 mg/g powder | Stability in Powder Concentrate (content by LCMSMS) ([2]; day 26): 0.686 mg/g powder | Stability in Powder Concentrate (content by LCMSMS) ([2]; day 29): 0.706 mg/g powder | Stability in Powder Concentrate (content by LCMSMS) ([2]; day 30): 0.659 mg/g powder | Stability in Powder Concentrate (content by LCMSMS) ([2]; day 60): 0.702 mg/g powder | Stability in Powder Concentrate (content by LCMSMS) ([2]; day 90): 0.707 mg/g powder | Stability in Powder Concentrate (content by LCMSMS) ([2]; day 120): 0.658 mg/g powder | Stability in Powder Concentrate (content by LCMSMS) ([2]; day 150): 0.695 mg/g powder | Stability in Powder Concentrate (content by LCMSMS) ([2]; day 180): 0.685 mg/g powder | Stability in Powder Concentrate (content by LCMSMS) ([2]; day 210): 0.662 mg/g powder | Stability in Powder Concentrate (content by LCMSMS) ([2]; day 240): 0.700 mg/g powder | Stability in Powder Concentrate (content by LCMSMS) ([2]; day 270): 0.670 mg/g powder | Stability in Powder Concentrate (content by LCMSMS) ([2]; day 300): 0.685 mg/g powder | Stability in Powder Concentrate (content by LCMSMS) ([2]; day 330): 0.691 mg/g powder | Stability in Powder Concentrate (content by LCMSMS) ([2]; day 360): 0.668 mg/g powder | Stability in Powder Concentrate (content by LCMSMS) ([2]; day 390): 0.680 mg/g powder | Stability in Powder Concentrate (content by LCMSMS) ([2]; day 420): 0.671 mg/g powder | Stability in Powder Concentrate (content by LCMSMS) ([2]; day 450): 0.680 mg/g powder | Stability in Powder Concentrate (content by LCMSMS) ([2]; day 480): 0.695 mg/g powder | Stability in Powder Concentrate (content by LCMSMS) ([2]; day 510): 0.696 mg/g powder | Stability in Powder Concentrate (content by LCMSMS) ([2]; day 540): 0.664 mg/g powder | Stability in Powder Concentrate (content by LCMSMS) ([2]; day 570): 0.686 mg/g powder
